In PubChem BioAssay AID2060490 (Molecular Pharmacology Branch, DTP, NCI, 2025):

Tested on: 885512-296-R-J2-PDC complex spheroid viability
Assay: Anticancer human tumor 885512-296-R-J2-PDC patient-derived breast carcinoma cell line growth inhibition [GQUAD]
Settings: for IC50: curve of first compound; for viability, T/C: stronger effect = lower value; active = viability on the fitted dose curve at most 10% of control; inactive = the rest
Text: DNA G-quadruplex Stabilizer Agents in Combinations in Complex Spheroids
A high-throughput screen of multi-cell type tumor spheroids was designed to identify active combinations of DNA G-quadruplex stabilizer agents and targeted small molecules. Complex spheroids include a stromal component modeled by human endothelial cells (HUVEC) and fibroblasts modeled by human mesenchymal stem cells (MSCs). The concentration ranges selected for each drug and investigational agent were based upon clinically achievable concentrations if the clinical Cmax of the agent was known.
Compounds. The drugs and investigational agents: pidnarulex (CX-5461; NSC782164), APTO-253 (NSC789042), BRACO-19 (NSC847499), peposertib (NSC802822), ceralasertib (NSC780249), elimusertib (NSC800525), camonsertib (NSC841442), AZD-1390 (NSC803789), olaparib (NSC753686), talazoparib (NSC767125), ART-558 (NSC835418), sotorasib (NSC818433), MRTX-1133 (NSC836407), SN-38 (NSC673596), topotecan (NSC609699), etoposide (NSC141540), doxorubicin (NSC123127), gemcitabine (NSC613327), 5-fluorouracil (NSC19893), paclitaxel (NSC125973), vemurafenib (NSC761431), panobinostat (NSC761190), R-306465 (JNJ-16241199; NSC773264), adavosertib (NSC754352), TP-3654 (NSC805149), carboplatin (NSC241240), KSQ-4279 (NSC840948), and staurosporine (NSC755774) were obtained from the National Cancer Institute (NCI) Developmental Therapeutics Program Chemical Repository (34). The FDA-approved anticancer drug set is available from the NCI Developmental Therapeutics Program. […] The stock solutions were prepared in dimethyl sulfoxide (DMSO, Sigma-Aldrich, St. Louis, MO, cat. D2650) at 800-fold the tested concentration and stored at -70 degrees C prior to their use. All drugs and investigational agents were tested over a range starting from a high concentration at or near the clinical Cmax and decreasing in half-log increments. If the clinical Cmax for an agent had not been determined, the highest concentration tested was 10 microM.
2.3 Cell Culture. All cells were maintained in an incubator at 37 degrees C and 5% CO2 with 95% humidity. The PDC lines were cultured according to standard operating procedures established by the NCI PDMR. All PDCs were thawed and cultured in Matrigel-coated flasks prepared with a working solution of 1X Ham's F-12 nutrient mix, without supplementation (Invitrogen, cat. 11765054), 100 U/mL penicillin-streptomycin (Invitrogen, cat. 15140122), and 2.5% Matrigel (Corning Inc., cat. 354248) for the first three passages. The 857933-349-R-J2-PDC line was cultured in 6C/Colon 1B media, which includes advanced DMEM/F-12 (Thermo Fisher Scientific, cat. 12634028), 10 mM HEPES (Thermo Fisher Scientific, cat. 15630080), 1X GlutaMAX supplement (Thermo Fisher Scientific, cat. 35050061), 0.1 mg/mL primocin (InvivoGen, cat. ant-pm-2), 10% defined fetal bovine serum, heat inactivated (HyClone Laboratories Inc., cat. SH30070.03HI), 50% L-WRN conditioned media (ATCC, cat. CRL-3276), 1.25 mM N-Acetyl-L-cysteine (Sigma-Aldrich, cat. A9165), 10 mM nicotinamide (Sigma-Aldrich, cat. N0636), 1X B-27 supplement (Thermo Fisher Scientific, cat. 17504044), 1X N-2 supplement (Thermo Fisher Scientific, cat. 17502048), 10 microM Y-27632 dihydrochloride (Tocris Bioscience, cat. 1254), and 50 ng/mL human EGF recombinant protein (Thermo Fisher Scientific, cat. PHG0311). The 485176-168-R4-J1-PDC line was cultured in Panc media, which includes all 6C/Colon 1B media components plus 100 ng/mL human FGF-10 (Thermo Fisher Scientific, cat. 100-26), 500 nM SB-431542 (Selleckchem, cat. S1067), and gastrin (Tocris, cat. 3006).
[…]

[1] = second compound 0.0316 µM, first compound 0.0316 µM
[2] = second compound 0.0316 µM, first compound 0.1 µM
[3] = second compound 0.0316 µM, first compound 0.316 µM
[4] = second compound 0.0316 µM, first compound 1 µM
[5] = second compound 0.0316 µM, first compound 3.16 µM
[6] = second compound 0.0316 µM, first compound 10 µM
[7] = second compound 0.1 µM, first compound 0.0316 µM
[8] = second compound 0.1 µM, first compound 0.1 µM
[9] = second compound 0.1 µM, first compound 0.316 µM
[10] = second compound 0.1 µM, first compound 1 µM
[11] = second compound 0.1 µM, first compound 3.16 µM
[12] = second compound 0.1 µM, first compound 10 µM
[13] = second compound 0.316 µM, first compound 0.0316 µM
[14] = second compound 0.316 µM, first compound 0.1 µM
[15] = second compound 0.316 µM, first compound 0.316 µM
[16] = second compound 0.316 µM, first compound 1 µM
[17] = second compound 0.316 µM, first compound 3.16 µM
[18] = second compound 0.316 µM, first compound 10 µM
[19] = second compound 1 µM, first compound 0.0316 µM
[20] = second compound 1 µM, first compound 0.1 µM
[21] = second compound 1 µM, first compound 0.316 µM
[22] = second compound 1 µM, first compound 1 µM
[23] = second compound 1 µM, first compound 3.16 µM
[24] = second compound 1 µM, first compound 10 µM
[25] = second compound 3.16 µM, first compound 0.0316 µM
[26] = second compound 3.16 µM, first compound 0.1 µM
[27] = second compound 3.16 µM, first compound 0.316 µM
[28] = second compound 3.16 µM, first compound 1 µM
[29] = second compound 3.16 µM, first compound 3.16 µM
[30] = second compound 3.16 µM, first compound 10 µM
[31] = second compound 10 µM, first compound 0.0316 µM
[32] = second compound 10 µM, first compound 0.1 µM
[33] = second compound 10 µM, first compound 0.316 µM
[34] = second compound 10 µM, first compound 1 µM
[35] = second compound 10 µM, first compound 3.16 µM
[36] = second compound 10 µM, first compound 10 µM
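Also: spheroids exposed to the compounds for one week.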
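For viability, T/C in this document: percent of tumor spheroid viability relative to DMSO vehicle control wells.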

CC1COCCN1c1cc(C2(O)CC3CCC(C2)O3)c2cnn(-c3ccn[nH]3)c2n1 (stereo not drawn) + CN(C)c1ccc(Nc2c3ccc(NC(=O)CCN4CCCC4)cc3nc3cc(NC(=O)CCN4CCCC4)ccc23)cc1
inactive: viability, T/C [1] 25.4% | viability, T/C [7] 30% | viability, T/C [13] 22.3% | viability, T/C [19] 29.2% | viability, T/C [25] 18.8% | viability, T/C [31] 12.7%
active: viability, T/C [2] 5.25% | viability, T/C [3] 3.07% | viability, T/C [4] 5.38% | viability, T/C [5] 6.51% | viability, T/C [6] 7.85% | viability, T/C [8] 5.86% | viability, T/C [9] 3.33% | viability, T/C [10] 4.56% | viability, T/C [11] 7.53% | viability, T/C [12] 8.91% | viability, T/C [14] 6.08% | viability, T/C [15] 5.15% | viability, T/C [16] 4.96% | viability, T/C [17] 6.17% | viability, T/C [18] 8.92% | viability, T/C [20] 3.86% | viability, T/C [21] 4.06% | viability, T/C [22] 4.6% | viability, T/C [23] 6.32% | viability, T/C [24] 7.75% | viability, T/C [26] 5.47% | viability, T/C [27] 3.21% | viability, T/C [28] 4.64% | viability, T/C [29] 6.84% | viability, T/C [30] 6.31% | viability, T/C [32] 4.76% | viability, T/C [33] 4.43% | viability, T/C [34] 2.68% | viability, T/C [35] 3.3% | viability, T/C [36] 1.22%
< 31.6 nM: IC50 (second compound 0.0316 µM) | IC50 (second compound 0.1 µM) | IC50 (second compound 0.316 µM) | IC50 (second compound 1 µM) | IC50 (second compound 3.16 µM) | IC50 (second compound 10 µM)

CC1COCCN1c1cc(C2(S(C)(=N)=O)CC2)nc(-c2ccnc3[nH]ccc23)n1 (stereo not drawn) + CN(C)c1ccc(Nc2c3ccc(NC(=O)CCN4CCCC4)cc3nc3cc(NC(=O)CCN4CCCC4)ccc23)cc1
795 nM: IC50 (second compound 0.1 µM)
744 nM: IC50 (second compound 3.16 µM)
729 nM: IC50 (second compound 1 µM)
800 nM: IC50 (second compound 0.0316 µM)
765 nM: IC50 (second compound 0.316 µM)
active: viability, T/C [5] 5.75% | viability, T/C [6] 3.04% | viability, T/C [11] 6.39% | viability, T/C [12] 2.92% | viability, T/C [17] 6.6% | viability, T/C [18] 4.64% | viability, T/C [23] 6.12% | viability, T/C [24] 3.44% | viability, T/C [29] 6.38% | viability, T/C [30] 3.89% | viability, T/C [35] 7.12% | viability, T/C [36] 4.27%
< 31.6 nM: IC50 (second compound 10 µM)
inactive: viability, T/C [1] 102% | viability, T/C [2] 90.4% | viability, T/C [3] 93% | viability, T/C [4] 39.7% | viability, T/C [7] 104% | viability, T/C [8] 92.5% | viability, T/C [9] 90.7% | viability, T/C [10] 39.9% | viability, T/C [13] 110% | viability, T/C [14] 102% | viability, T/C [15] 87.1% | viability, T/C [16] 39.5% | viability, T/C [19] 97.3% | viability, T/C [20] 90.8% | viability, T/C [21] 85.1% | viability, T/C [22] 36.9% | viability, T/C [25] 96.7% | viability, T/C [26] 98.4% | viability, T/C [27] 100% | viability, T/C [28] 33.3% | viability, T/C [31] 15.1% | viability, T/C [32] 20.8% | viability, T/C [33] 21.7% | viability, T/C [34] 11.7%

COc1ccc([C@@H](O)c2cc(-c3ncnc4cc(N5CCOCC5)ccc34)c(F)cc2Cl)nn1 + CN(C)c1ccc(Nc2c3ccc(NC(=O)CCN4CCCC4)cc3nc3cc(NC(=O)CCN4CCCC4)ccc23)cc1
< 31.6 nM: IC50 (second compound 10 µM)
inactive: viability, T/C [1] 105% | viability, T/C [2] 106% | viability, T/C [3] 104% | viability, T/C [4] 103% | viability, T/C [5] 83.8% | viability, T/C [6] 48.5% | viability, T/C [7] 121% | viability, T/C [8] 93.8% | viability, T/C [9] 92.1% | viability, T/C [10] 92.7% | viability, T/C [11] 74.4% | viability, T/C [12] 53.6% | viability, T/C [13] 104% | viability, T/C [14] 98.1% | viability, T/C [15] 91% | viability, T/C [16] 86.6% | viability, T/C [17] 81.6% | viability, T/C [18] 50.1% | viability, T/C [19] 93.4% | viability, T/C [20] 101% | viability, T/C [21] 98.5% | viability, T/C [22] 88.1% | viability, T/C [23] 81.3% | viability, T/C [24] 51.9% | viability, T/C [25] 94.6% | viability, T/C [26] 101% | viability, T/C [27] 86% | viability, T/C [28] 63% | viability, T/C [29] 60.2% | viability, T/C [30] 34.9% | viability, T/C [31] 13.4% | viability, T/C [32] 21.5% | viability, T/C [33] 19.6% | viability, T/C [34] 14.6% | viability, T/C [35] 10.4%
4100 nM: IC50 (second compound 3.16 µM)
active: viability, T/C [36] 6.55%
> 10000 nM: IC50 (second compound 0.1 µM) | IC50 (second compound 0.316 µM) | IC50 (second compound 1 µM)
9540 nM: IC50 (second compound 0.0316 µM)

O=C(c1cc(Cc2n[nH]c(=O)c3ccccc23)ccc1F)N1CCN(C(=O)C2CC2)CC1 + CN(C)c1ccc(Nc2c3ccc(NC(=O)CCN4CCCC4)cc3nc3cc(NC(=O)CCN4CCCC4)ccc23)cc1
inactive: viability, T/C [1] 105% | viability, T/C [2] 103% | viability, T/C [3] 132% | viability, T/C [4] 139% | viability, T/C [5] 117% | viability, T/C [6] 29.2% | viability, T/C [7] 102% | viability, T/C [8] 94.9% | viability, T/C [9] 119% | viability, T/C [10] 145% | viability, T/C [11] 120% | viability, T/C [12] 33% | viability, T/C [13] 93.7% | viability, T/C [14] 110% | viability, T/C [15] 118% | viability, T/C [16] 131% | viability, T/C [17] 123% | viability, T/C [18] 25.7% | viability, T/C [19] 85.2% | viability, T/C [20] 102% | viability, T/C [21] 116% | viability, T/C [22] 152% | viability, T/C [23] 105% | viability, T/C [24] 29.1% | viability, T/C [25] 95% | viability, T/C [26] 107% | viability, T/C [27] 125% | viability, T/C [28] 107% | viability, T/C [29] 67.8% | viability, T/C [30] 28.7% | viability, T/C [31] 20.7% | viability, T/C [32] 23.3% | viability, T/C [33] 20.1% | viability, T/C [34] 19.2% | viability, T/C [35] 20.8% | viability, T/C [36] 15.8%
< 31.6 nM: IC50 (second compound 10 µM)
7900 nM: IC50 (second compound 0.1 µM)
7620 nM: IC50 (second compound 0.0316 µM)
7330 nM: IC50 (second compound 0.316 µM)
5340 nM: IC50 (second compound 3.16 µM)
7310 nM: IC50 (second compound 1 µM)
